# Measured values as given in patent US20240208940A1, “SMALL-MOLECULE INHIBITORS FOR BETA-CATENIN/BCELL LYMPHOMA 9 PROTEIN-PROTEIN INTERACTION” (H. LEE MOFFITT CANCER CENTER AND RESEARCH INSTITUTE, INC., priority 2021, published 2024).
# pIC50, pKi: −log10 of the molar value.
# Key:
# [1] = target: β-catenin/BCL9 PPI (Homo sapiens (Human), UniProt P35222); assay: AlphaScreen competitive inhibition assay of β-catenin/BCL9 PPI; format: binding; conditions: mean ± standard deviation (n = 3)
# In short: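 5 nM biotinylated BCL9 and 50 nM His6-β-catenin were preincubated 30 min in pH 7.4 Hepes/NaCl/Triton/BSA buffer, then with inhibitor for 1 h, then 10 μg/mL donor/acceptor beads for 1 h, with 1% DMSO. IC50 came from nonlinear fitting, and Ki was calculated from IC50 by the Wang equation.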
# [2] = system: β-catenin/BCL9 PPI; assay: Cell-based co-IP, β-catenin/BCL9; conditions: HCT116 cells, 24 h
# Experimental: (§1) Co-IP Experiments. HCT116 cancer cells with hyperactive β-catenin signaling at 1×10^6 cells/mL were treated with different concentrations of the inhibitor for 24 h. Cells were then lysed in buffer containing 50 mM Tris, pH 7.4, 150 mM NaCl, 1% Nonidet P-40, 2 mM EDTA and protease inhibitors. The cell lysates were pre-adsorbed to A/G plus agarose (sc-2003, Santa Cruz Biotechnology) at 4° C. for 1 h. Pre-adsorbed lysates were incubated with a specific primary antibody against β-catenin (610153, BD Biosciences) overnight at 4° C. A/G plus agarose was then added to the lysate mixture and incubated for 3 h. The beads were washed four times with buffer B (20 mM Tris pH 7.4, 150 mM NaCl, 0.1% NP-40) at 4° C. The bound protein was eluted by boiling in the SDS sample buffer and loaded onto 8% SDS polyacrylamide gel for electrophoretic analysis. Separated proteins were transferred onto nitrocellulose membranes for immunoblot analysis. The antibodies against BCL9 (ab37305, Abcam) and E-cadherin (610404, BD Biosciences) were incubated with the membranes, respectively. IRDye 680LT goat anti mouse IgG (827-11080, LiCOR) and IRDye 800CW goat anti rabbit IgG (926-32211, LiCOR) were used as the secondary antibodies. The images were detected by the Odyssey Infrared Imaging System (LiCOR). Experiments were performed in triplicate.
# [3] = system: β-catenin/E-cadherin PPI; assay: Cell-based co-IP, β-catenin/E-cadherin; conditions: HCT116 cells, 24 h; concentrations sufficient to disrupt β-catenin/BCL9 PPI
# Experimental: as §1
# [4] = system: Wnt/β-catenin transactivation (TOPFlash) in SW480 cells; assay: Wnt-responsive TOPFlash luciferase reporter assay; format: cell-based; conditions: 24 h
# Experimental: (§2) Cell Transfection and Luciferase Assay. FuGENE6 (E269 Å, Promega) 96 well plate format was used for the transfection of SW480 cells according to the manufacturer's instruction. SW480 cells were co-transfected with 60 ng of the TOPFlash or FOPFlash firefly luciferase reporter gene and 40 ng of the Renilla luciferase pCMV-RL normalization reporter gene. Cells were cultured in DMEM and 10% FBS at 37° C. for 24 h, and then different concentrations of inhibitors or DMSO was added and incubated in DMEM with 5% FBS. After 24 h, the luciferase reporter activity was measured using the Dual-Glo system (E2940, Promega). Normalized luciferase activity in response to the treatment with inhibitors was compared with that obtained from the cells treated with DMSO. Experiments were performed in triplicate.
# [5] = system: FOPFlash reporter in SW480 cells; assay: FOPFlash luciferase reporter assay; format: cell-based; conditions: testing concentrations
# Experimental: as §2
# [6] = system: Wnt target genes Axin2, BCL9L, MMP7 in SW480 cells; assay: Quantitative real-time PCR of Wnt target genes; format: cell-based, human; conditions: 24-h incubation
# Experimental: Quantitative Real Time PCR analysis. SW480 cells at 1×10^6 cells/mL were treated with inhibitors at different concentrations for 24 h. Total RNAs were extracted with TRIzol (15596026, Life Technologies), and the cDNA was synthesized with the superscript III first-strand kit (18080-051, Invitrogen). qPCR experiments were performed using the iQ™ SYBR green supermix kit (170-8880, BIO-RAD) on an CFX96 Real Time System (BIO-RAD). The threshold cycle (CT) values were normalized to that of internal reference GAPDH. Experiments were performed in triplicate. The primer pairs are shown below
# [7] = system: Axin2; assay: Western blot of Wnt target gene protein expression; format: cell-based; conditions: SW480 cells, 24-h incubation
# Experimental: Western Blotting of Wnt Target Genes. SW480 cells at 1×10^6 cells/mL were treated with different concentrations of inhibitors for 24 h. Cells were lysed in buffer containing 50 mM Tris (pH 7.4), 150 mM NaCl, 1% Nonidet P-40, 0.1% SDS, 0.5% sodium deoxycholate, and protease inhibitors. After centrifugation at 12,000 rpm for 20 min at 4° C., the supernatant was boiling in the SDS sample buffer and loaded onto an 8% SDS polyacrylamide gel for electrophoretic analysis. Separated proteins were transferred onto nitrocellulose membranes for immunoblot analysis. The antibodies against Axin2 (MA5-15015, Thermo Fisher) and f-tubulin (sc-55529, Santa Cruz Biotechnology) were incubated with the membranes overnight at 4° C., respectively. IRDye 680LT goat anti-mouse IgG (827-11080, LiCOR) or IRDye 800CW goat anti-rabbit IgG (827-08365, LiCOR) was used as the secondary antibody. The images were detected by the Odyssey Infrared Imaging System (LiCOR). Experiments were performed in duplicate.
# [8] = system: MCF10A cells; assay: MTS cell growth inhibition, normal breast epithelial cells; format: cell-based, human; conditions: 72 h
# Experimental: MTS Cell Growth Inhibition Experiments. Colorectal cancer cells (SW480 and HCT116) and triple negative breast cancer cells (MDA-MB-231 and MDA-MB-468) were seeded in 96-well plates at 5×10^3 cells/well in DMEM with 10% fetal bovine serum (FBS), maintained overnight at 37° C., and then incubated with the tested compounds at various concentrations in DMEM with 5% FBS. Human mammary epithelial MCF10A cells were seeded in 96-well plates at 1×10^4 cells/well in MEGM (CC-3150, Lonza) with 100 ng/mL cholera toxin, maintained overnight at 37° C., and incubated with the tested compounds at various concentrations. Cell viability was monitored after 72 h using a freshly prepared mixture of 1 part phenazine methosulfate (PMS, Sigma) solution (0.92 mg/mL) and 19 parts 3-(4,5-dimethylthiazol-2-yl)-5-(3-carboxymethoxyphenyl)-2-(4-sulfophenyl)-2H-tetrazolium (MTS, Promega) solution (2 mg/mL). Cells were incubated in 10 μL of this solution at 37° C. for 3 h, and the UV absorption at 490 nm (A490) was measured. The effect of each compound is expressed as the concentration required to reduce A490 by 50% (IC50) relative to DMSO-treated cells. Experiments were performed in triplicate.
# Chain of β-catenin/BCL9 PPI (Homo sapiens (Human), UniProt P35222) (P35222 whole entry): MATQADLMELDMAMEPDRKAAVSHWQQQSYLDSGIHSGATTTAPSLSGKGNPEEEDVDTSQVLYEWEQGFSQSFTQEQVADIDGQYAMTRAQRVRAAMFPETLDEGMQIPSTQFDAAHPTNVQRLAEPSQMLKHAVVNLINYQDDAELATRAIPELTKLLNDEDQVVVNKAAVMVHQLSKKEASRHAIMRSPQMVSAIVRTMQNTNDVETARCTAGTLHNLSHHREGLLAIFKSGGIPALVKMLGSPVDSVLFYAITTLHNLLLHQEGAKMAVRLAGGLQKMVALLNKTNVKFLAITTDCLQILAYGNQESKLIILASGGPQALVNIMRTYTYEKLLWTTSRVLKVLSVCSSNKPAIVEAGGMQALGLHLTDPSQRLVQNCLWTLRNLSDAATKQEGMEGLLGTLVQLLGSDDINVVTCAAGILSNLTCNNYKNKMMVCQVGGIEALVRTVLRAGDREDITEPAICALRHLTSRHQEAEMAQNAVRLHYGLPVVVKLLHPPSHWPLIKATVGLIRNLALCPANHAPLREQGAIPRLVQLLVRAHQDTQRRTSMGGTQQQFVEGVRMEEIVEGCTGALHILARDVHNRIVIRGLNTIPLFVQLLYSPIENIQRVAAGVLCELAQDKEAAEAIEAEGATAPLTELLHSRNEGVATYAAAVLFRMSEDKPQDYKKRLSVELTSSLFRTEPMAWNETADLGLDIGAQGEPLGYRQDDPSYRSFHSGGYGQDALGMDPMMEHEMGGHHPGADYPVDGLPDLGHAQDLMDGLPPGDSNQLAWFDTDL
compound,measurement,setting,value
CC(C)(C)[C@H]1CC[C@@H](c2cc(C(=O)N3CCC(Oc4cc(N5CCNCC5)ccc4C#N)CC3)ccc2O[C@H]2CCNC2)CC1 [Compound 44],pKi,"[1]; derived from IC50, read-out: Ki ± SD",≥ 5.70
same,pIC50,[1],≥ 5.70
same,disruption of β-catenin/BCL9 interaction (co-IP),[2],effectively disrupted β-catenin/BCL9 interaction
same,effect on β-catenin/E-cadherin PPI (co-IP),[3],did not affect the β-catenin/E-cadherin PPI
same,pIC50,[4],5.59
same,FOPFlash luciferase activity,[5],not affected
same,effect on house-keeper gene HPRT (qPCR),[6],no effect
same,"transcription of Wnt target genes Axin2, BCL9L, MMP7 (qPCR)",[6],downregulated transcriptions
same,protein expression level of Axin2,[7],significant decreased
same,selectivity over normal breast epithelial MCF10A cells,[8],> 4 fold
